Measured values taken from BigSolDB 2.1.

SMILES: Nc1ncnc2c1ncn2[C@@H]1O[C@H](CO)[C@@H](O)[C@H]1O
- solubility (mole fraction) (in DMF, 278.15 K): 0.00414
- solubility (mole fraction) (in DMF, 283.15 K): 0.00502
- solubility (mole fraction) (in DMF, 288.15 K): 0.00594
- solubility (mole fraction) (in DMF, 293.15 K): 0.00687
- solubility (mole fraction) (in DMF, 298.15 K): 0.00784
- solubility (mole fraction) (in DMF, 303.15 K): 0.00906
- solubility (mole fraction) (in DMF, 308.15 K): 0.00993
- solubility (mole fraction) (in DMF, 313.15 K): 0.0108
- solubility (mole fraction) (in DMF, 318.15 K): 0.012
- solubility (mole fraction) (in DMF, 323.15 K): 0.0127
- solubility (mole fraction) (in DMSO, 293.15 K): 0.00262
- solubility (mole fraction) (in DMSO, 298.15 K): 0.00299
- solubility (mole fraction) (in DMSO, 303.15 K): 0.00348
- solubility (mole fraction) (in DMSO, 308.15 K): 0.00394
- solubility (mole fraction) (in DMSO, 313.15 K): 0.00442
- solubility (mole fraction) (in DMSO, 318.15 K): 0.00488
- solubility (mole fraction) (in DMSO, 323.15 K): 0.00537
- solubility (mole fraction) (in NMP, 278.15 K): 0.0321
- solubility (mole fraction) (in NMP, 283.15 K): 0.035
- solubility (mole fraction) (in NMP, 288.15 K): 0.0376
- solubility (mole fraction) (in NMP, 293.15 K): 0.0407
- solubility (mole fraction) (in NMP, 298.15 K): 0.0437
- solubility (mole fraction) (in NMP, 303.15 K): 0.0467
- solubility (mole fraction) (in NMP, 308.15 K): 0.0496
- solubility (mole fraction) (in NMP, 313.15 K): 0.0522
- solubility (mole fraction) (in NMP, 318.15 K): 0.0554
- solubility (mole fraction) (in NMP, 323.15 K): 0.0582
- solubility (mole fraction) (in propylene glycol, 278.15 K): 0.00352
- solubility (mole fraction) (in propylene glycol, 283.15 K): 0.00375
- solubility (mole fraction) (in propylene glycol, 288.15 K): 0.004
- solubility (mole fraction) (in propylene glycol, 293.15 K): 0.00431
- solubility (mole fraction) (in propylene glycol, 298.15 K): 0.00464
- solubility (mole fraction) (in propylene glycol, 303.15 K): 0.00497
- solubility (mole fraction) (in propylene glycol, 308.15 K): 0.00537
- solubility (mole fraction) (in propylene glycol, 313.15 K): 0.0058
- solubility (mole fraction) (in propylene glycol, 318.15 K): 0.00623
- solubility (mole fraction) (in propylene glycol, 323.15 K): 0.00665
- solubility (mole fraction) (in water, 278.15 K): 0.00019
- solubility (mole fraction) (in water, 283.15 K): 0.000237
- solubility (mole fraction) (in water, 288.15 K): 0.00029
- solubility (mole fraction) (in water, 293.15 K): 0.000353
- solubility (mole fraction) (in water, 298.15 K): 0.000426
- solubility (mole fraction) (in water, 303.15 K): 0.000516
- solubility (mole fraction) (in water, 308.15 K): 0.000611
- solubility (mole fraction) (in water, 313.15 K): 0.000731
- solubility (mole fraction) (in water, 318.15 K): 0.000876
- solubility (mole fraction) (in water, 323.15 K): 0.00105
